Where two headings read alike, the source gives them in different places.
Columns and labels:
[1] = system: HUVEC; experiment: HUVEC proliferation (MTS); type: cell-based, human
Description: In vivo angiogenesis is dependent on endothelial cell proliferation; therefore, the inhibition of HUVEC proliferation is commonly utilized as an early stage in vitro model of anti-angiogenic activity. […] Under normal conditions, HUVECs plated and grown on Matrigel migrate towards each other, align, and form tubes that resemble in vivo capillary beds. This assay is generally considered a more robust model of angiogenesis as it requires several aspects of proper vessel formation, including adhesion, migration, and tube formation.
HUVEC Cell Viability and Proliferation. HUVEC cell viability and proliferation will be assessed by measuring cellular metabolic activity using MTT (viability) or MTS (proliferation) according to the manufacturer's instructions. HUVECs (3000 cells/well) are seeded in a 96-well plate and allowed to attach overnight. […] For viability, the final value is a corrected optical density (570 nm-690 nm). All viability and GI50 values are from a minimum of three separate experiments performed in triplicate.
HUVEC Cell Viability and Proliferation. HUVEC cell proliferation was assessed by measuring cellular metabolic activity using standard MTS/PMS protocols according to manufacturer's instructions. Briefly, HUVECs (3,000 cells/well) were seeded in a 96-well plate and allowed to attach overnight. Cells were treated with varying concentrations of drug as indicated and proliferation was assessed after 72 h with MTS.

[2] = system: Hh signaling (Gli1 mRNA) in C3H10T1/2 cells; experiment: Down-regulation of endogenous Gli1 mRNA in Hh-dependent C3H10T1/2 cells; type: cell-based, mouse; settings: for mrna remaining at 1 µM / IC50: Mus musculus; for mrna remaining at 1 µM: read-out: % Gli expression (1 μM)
Method: To determine whether the triazole functionality was required for inhibition of Hh signaling, the ability of Analogue 1 to down-regulate the well-characterized Hh pathway target gene Gli1 in the Hh-dependent C3H10T1/2 cell line was determined. In this cellular model, activation of the pathway with exogenous recombinant Hh ligand results in a characteristic up-regulation of Gli1 mRNA, while concomitant administration of a pathway inhibitor reduces Gli1 expression.
(§1) General Information. Protocols for general cell culture, qPCR and Hh inhibition in C3H10T1/2 and ASZ cells are as previously described.^28 Protocols for the initiation and growth of Math1-Cre-ER; Ptc^fl/fl medulloblastoma tumors, isolation and in vitro culture of MERP MB cells, as wells as the anti-proliferation and qPCR studies performed in these cells were as previously described.^a Sonic Hedgehog (C25II) recombinant mouse protein was purchased from Life Technologies. aData was analyzed using GraphPad Prism 5 and reported values represent mean±SEM for at least two separate experiments performed in triplicate.
(§2) In this well-studied model system for evaluating small molecule inhibition of Hh signaling, addition of an exogenous Hh agonist (recombinant Hh ligand or small molecule) results in a characteristic increase in Gli1 mRNA expression. Concomitant incubation with a pathway inhibitor reduces Gli1 expression. Analogues that reduced Gli1 mRNA levels below 20% in this assay were subsequently evaluated for their ability to reduce Gli1 mRNA expression levels in a concentration-dependent fashion in these cells and the Hh-dependent murine BCC cell line ASZ. In addition, several compounds were evaluated for their anti-proliferative effects in primary Hh-dependent medulloblastoma cells isolated from conditional patched knockout (Math1-Cre-ER; Ptc^fl/fl, MERP) mice. […] Finally, each of these analogues was evaluated for its ability to inhibit proliferation in human umbilical vein […] cells (HUVECs). In vivo angiogenesis is dependent on endothelial cell proliferation; therefore, the inhibition of HUVEC proliferation is commonly utilized as an early stage in vitro model of anti-angiogenic activity.

[3] = system: Hh signaling (Gli1 mRNA) in ASZ cells; experiment: Down-regulation of endogenous Gli1 mRNA in ASZ cells; type: cell-based, murine; settings: Mus musculus
Method: as §1, §2

[4] = Homo sapiens, HUVEC, 72 h, read-out: GI50 (μM) HUVEC, 72 h
[5] = C3H 10T1/2, read-out: IC50 (μM) Gli1-C3Hs
[6] = Homo sapiens, HUVEC, 72 h, read-out: GI50 (μM) HUVEC
[7] = C3H 10T1/2, 1 μM, 24 hr incubation, relative to recombinant Hh ligand control (100%)

CCCn1ncn(-c2ccc(N3CCN(c4ccc(OCC5COC(Cn6cncn6)(c6ccc(Cl)cc6Cl)O5)cc4)CC3)cc2)c1=O (stereo not drawn) [Compound 8a, 4-(4-(4-(4-((2-((1H-1,2,4-triazol-1-yl)methyl)-2-(2,4-dichlorophenyl)-1,3-dioxolan-4-yl)methoxy)phenyl)piperazin-1-yl)phenyl)-1-propyl-1H-1,2,4-triazol-5(4H)-one]
GI50 [1, 4]: 4.7 ± 0.3 µM
mrna remaining at 1 µM ([2]; C3H 10T1/2, 24 h): 58.5 ± 6.4%

C[C@H](O)Cn1ncn(-c2ccc(N3CCN(c4ccc(OCC5COC(Cn6cncn6)(c6ccc(Cl)cc6Cl)O5)cc4)CC3)cc2)c1=O (stereo partly drawn) [Itz-psz #1 (S−)]
IC50 ([3]; read-out: IC50 (μM) Gli1-ASZs): 0.15 ± 0.01 µM
IC50 [2, 5]: 0.45 ± 0.09 µM

CC(C)N1CCN(c2ccc(OCC3COC(Cn4cncn4)(c4ccc(Cl)cc4Cl)O3)cc2)CC1 (stereo not drawn) [terconazole, reference compound]
Hh inhibitory activity relative to ITZ ([2]; 1 μM): significant reduction in Hh inhibitory activity

CCC(C)n1ncn(-c2ccc(N3CCN(c4ccc(O)cc4)CC3)cc2)c1=O (stereo not drawn) [Compound 45a]
GI50 ([1]; 72 h, read-out: GI50 (μM) HUVEC): > 100 µM
% Gli expression (1 μM) ([2]; 1 μM, 24 hr incubation, relative to recombinant Hh ligand control (100%)): 45.7 ± 3.0%

CCCn1ncn(-c2ccc(N3CCN(c4ccc(OC[C@@H]5CO[C@@](C)(c6ccc(Cl)cc6Cl)O5)cc4)CC3)cc2)c1=O [Compound 22a, 4-(4-(4-(4-(((2R,4R)-2-(2,4-dichlorophenyl)-2-methyl-1,3-dioxolan-4-yl)methoxy)phenyl)piperazin-1-yl)phenyl)-2-propyl-2,4-dihydro-3H-1,2,4-triazol-3-one]
IC50 ([3]; 48 hr incubation, read-out: IC50 (μM) ASZ): 1.3 ± 0.65 µM
GI50 [1, 6]: 26.5 ± 3.5 µM
IC50 ([2]; C3H 10T1/2, 24 hr incubation, read-out: IC50 (μM) C3H10T1/2): 4.1 ± 1.5 µM

CC[C@H](C)n1ncn(-c2ccc(N3CCN(c4ccc(OCC5COC(Cn6cncn6)(c6ccc(Cl)cc6Cl)O5)cc4)CC3)cc2)c1=O (stereo partly drawn) [Compound 6a, 4-(4-(4-(4-((2-((1H-1,2,4-triazol-1-yl)methyl)-2-(2,4-dichlorophenyl)-1,3-dioxolan-4-yl)methoxy)phenyl)piperazin-1-yl)phenyl)-2-((S)-sec-butyl)-2,4-dihydro-3H-1,2,4-triazol-3-one]
IC50 ([3]; 48 h, read-out: IC50 (μM) ASZ, 48 hr incubation): 0.14 ± 0.008 µM
GI50 [1, 4]: 2.5 ± 0.3 µM
mrna remaining at 1 µM ([2]; C3H 10T1/2, 24 h): 6.9 ± 3.1%
IC50 ([2]; C3H 10T1/2, 24 h, read-out: IC50 (μM) C3H10T1/2, 24 hr incubation): 0.16 ± 0.04 µM

CCC(C)n1ncn(-c2ccc(N3CCN(c4ccc(OCC5COC(C)(C)O5)cc4)CC3)cc2)c1=O (stereo not drawn) [Compound 5a, 1-(sec-butyl)-4-(4-(4-(4-((2,2-dimethyl-1,3-dioxolan-4-yl)methoxy)phenyl)piperazin-1-yl)phenyl)-1H-1,2,4-triazol-5(4H)-one]
GI50 [1, 6]: > 100 µM
mrna remaining at 1 µM [2, 7]: 71.4 ± 5.5%

CCC(C)n1ncn(-c2ccc(N3CCN(c4ccc(OCC5COC(C)(Cn6cncn6)O5)cc4)CC3)cc2)c1=O (stereo not drawn) [Compound 4a, 4-(4-(4-(4-((2-((1H-1,2,4-triazol-1-yl)methyl)-2-methyl-1,3-dioxolan-4-yl)methoxy)phenyl)piperazin-1-yl)phenyl)-2-(sec-butyl)-2,4-dihydro-3H-1,2,4-triazol-3-one]
GI50 [1, 6]: 18.4 ± 4.5 µM
mrna remaining at 1 µM [2, 7]: 61.4 ± 3.5%

1-(sec-butyl)-4-(4-(4-(4-((2-(2,4-dichlorophenyl)-2-methyl-1,3-dioxolan-4-yl)methoxy)phenyl)piperazin-1-yl)phenyl)-1H-1,2,4-triazol-5(4H)-one [Compound 2a]
GI50 ([1]; read-out: GI50 HUVEC proliferation): 0.49 µM

CC(=O)N1CCN(c2ccc(OCC3COC(Cn4ccnc4)(c4ccc(Cl)cc4Cl)O3)cc2)CC1 (stereo not drawn) [ketoconazole, reference compound]
Hh inhibitory activity relative to ITZ ([2]; 1 μM): significant reduction in Hh inhibitory activity

CS(=O)(=O)c1ccc(C(=O)Nc2ccc(Cl)c(-c3ccccn3)c2)c(Cl)c1 [GDC-0449, reference compound]
IC50 ([3]; down-regulation of endogenous Gli1 mRNA, read-out: Hh pathway inhibition ASZ): 0.04 ± 0.01 µM
IC50 ([2]; C3H 10T1/2, down-regulation of endogenous Gli1 mRNA, read-out: Hh pathway inhibition C3H10T1/2): 0.082 ± 0.02 µM

C[C@@H](O)Cn1ncn(-c2ccc(N3CCN(c4ccc(OCC5COC(Cn6cncn6)(c6ccc(Cl)cc6Cl)O5)cc4)CC3)cc2)c1=O (stereo partly drawn) [Itz-psz #2 (R−)]
IC50 ([3]; read-out: IC50 (μM) Gli1-ASZs): 0.1 ± 0.01 µM
IC50 [2, 5]: 0.18 ± 0.02 µM

Source: patent US9650365B2 (UNIVERSITY OF CONNECTICUT, priority 2014, dated 2017)
